How the values were obtained:
[1] = Fluorescence of free probe prior to binding to a protein tag; assay type: physicochemical
Experimental: (§1) Probes were mixed with corresponding protein tags to obtain mixed samples, in which the final probe concentration was 5 μM, and the final protein tag concentration was 10 μM. The mixed samples were incubated 37° C. for 1 hr, fluorescence spectrophotometer was used to detect the change in fluorescence intensity, and the results are shown in Table 1.
(§2) From the quantum yield of probe bound to protein tag, after reacting with the protein tags, the probes of the Examples could be detected to have significant signal enhancement in corresponding excitation transmission channels, the fluorescence activation multiple reached several hundreds to a thousand or more, and the brightness was high, which illustrates that after the probes of the Examples are bound to the protein tags, fluorescence of the probes can be activated, and the probes have good fluorescent molecular switching properties. In contrast, though the fluorescence of the reference probes could also be activated, the quantum yield of activated fluorescence was very low, and the brightness was very poor. In particular, in view of comparison results between probe 98 and reference probe 99, probe 101 and reference probe 102, probe 103 and reference probe 104, probe 105 and reference probe 106, probe 107 and reference probe 108, probe 109 and reference probe 110, probe 111 and reference probe 112, probe 114 and reference probe 115, probe 117 and reference probe 118, probe 120 and reference probe 121 in Table 1, for the same fluorescent dye, when the ligand is connected to the electron donor part of the fluorescent dye, the fluorescence activation brightness of the probe is much higher than the reference probe in which ligand is connected to the electron acceptor part of the fluorescent dye.

[2] = Viscosity responsiveness: fluorescence emission spectra of probes in glycerol and methanol; assay type: physicochemical; conditions: for Emission wavelength: excited at maximum excitation wavelength of each probe; for Fluorescence ratio in glycerol to methanol: probe 1×10^−5 M
Experimental: Probes 1 to 98, 101, 103, 105, 107, 109, 111, 114, 117, and 120, and the reference probes 99, 100, 102, 104, 106, 108, 110, 112, 113, 115, 116, 118, 119, 121, BG-CCVJ and BG-Gly-CCVJ were dissolved in dimethyl sulfoxide, respectively, to prepare mother liquors having a concentration of 1×10^−2 M, to each of which glycerol and methanol were added and uniformly mixed, to prepare solutions finally having a concentration of 1×10^−5 M. Depending on the probes, fluorescence emission spectra of the probes were detected successively with the maximum excitation wavelength of each probe under the same conditions, and the results were shown in Table 1.
That is, these probes are sensitive to viscosity changes and have viscosity responsiveness.

SNAP protein tags = target: T1, SNAP protein tags (Homo sapiens, UniProt P16455, A127T/A154D/C150Q/C62A/E30R/G131K/G132T/G153L/K125A/K32I/L33F/M134L/N157G/Q115S/Q116H/R128A/R135S/S151G/S152D/S159E); assay: Fluorescence activation of probe after incubation with corresponding protein tag (SNAP); assay type: biochemical; conditions: probe 5 μM, protein tag 10 μM, 37° C., 1 hr
T1 sequence (P16455 1-182 E30R/K32I/L33F/C62A/Q115S/Q116H/K125A/A127T/R128A/G131K/G132T/M134L/R135S/C150Q/S151G/S152D/G153L/A154D/N157G/S159E): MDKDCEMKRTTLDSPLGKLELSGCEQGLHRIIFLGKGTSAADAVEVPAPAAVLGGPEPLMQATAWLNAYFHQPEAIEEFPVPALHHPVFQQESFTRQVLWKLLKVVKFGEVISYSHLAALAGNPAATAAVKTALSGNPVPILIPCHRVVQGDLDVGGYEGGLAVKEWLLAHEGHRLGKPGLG
Experimental: as §1, §2

Row | SMILES | Quantum yield of free probe [1] | Emission wavelength [2] [nm] | Fluorescence ratio in glycerol to methanol [2] | Fluorescence activation multiple (SNAP protein tags) | Quantum yield of probe bound to protein tag (SNAP protein tags)
1 | CN(CCOC(=O)NCc1ccc(COc2nc(N)nc3[nH]cnc23)cc1)c1cc2sc(/C=C(\C#N)c3nc4ccccc4s3)cc2s1 [probe 23] | <0.001 | 610 | 1235 | 712 | 0.42
2 | CN(CCOC(=O)NCc1ccc(COc2cc(Cl)nc(N)n2)cc1)c1ccc(/C=C(\C#N)c2nc3ccccc3s2)cc1 [probe 6] | <0.001 | 610 | 1183 | 989 | 0.37
3 | CN(CCOC(=O)NCc1ccc(COc2nc(N)nc3[nH]cnc23)cc1)c1ccc2nc(/C=C(\C#N)C(=O)OC(C)(C)C)oc2c1 [probe 43] | <0.001 | 602 | 1028 | 982 | 0.37
4 | COCCNC(=O)/C(C#N)=C/c1ccc(-c2ccc(N(C)CCOC(=O)NCc3ccc(COc4cc(Cl)nc(N)n4)cc3)cc2)s1 [probe 68] | <0.001 | 620 | 381 | 681 | 0.36
5 | CN(CCOC(=O)NCc1ccc(COc2cc(Cl)nc(N)n2)cc1)c1ccc(C2=C(C#N)C(=C(C#N)C#N)OC2(C)C)cc1 [probe 19] | 0.0012 | 535 | 299 | 361 | 0.45
6 | CC(C)(C)OC(=O)/C(C#N)=C/c1ccc2c(c1)SCCN2CCOC(=O)NCc1ccc(COc2nc(N)nc3[nH]cnc23)cc1 [probe 83] | <0.001 | 515 | 103 | 209 | 0.18
7 | CN(CCO)c1ccc2nc(/C=C(\C#N)C(=O)NCc3ccc(COc4nc(N)nc5[nH]cnc45)cc3)sc2c1 [Reference Probe 115, reference compound] | <0.001 | 625 | 113 | 38 | 0.01
8 | CN(CCOC(=O)NCc1ccc(COc2nc(N)nc3[nH]cnc23)cc1)c1ccc2cc(/C=C(\C#N)C(=O)O)sc2c1 [probe 111] | <0.001 | 570 | 621 | 681 | 0.49
9 | CN(C)c1ccc2nc(/C=C(\C#N)C(=O)NCc3ccc(COc4nc(N)nc5[nH]cnc45)cc3)sc2c1 [Reference Probe 113, reference compound] | <0.001 | 625 | 129 | 36 | 0.01
10 | N#C/C(=C\c1ccc2c(c1)SCCN2CCOC(=O)NCc1ccc(COc2nc(N)nc3[nH]cnc23)cc1)c1nc2ccccc2s1 [probe 86] | <0.001 | 550 | 214 | 413 | 0.17

Source: US11209437B2, “Fluorescent probe and preparation method and use thereof” (Fluorescence Diagnosis (shanghai) Biotech Company Ltd., priority 2016, dated 2021)
